This note sets out measurements from patent US6083920A, “Compositions for modulating intracellular inositol trisphosphate concentration” (priority 1996, dated 2000).

“Also recorded” adds a separate entry of the source.

The test system of data set [1] is InsP3 signalling in primary chick cortical neurons. As to the kind of experiment: Phosphoinositide hydrolysis assay (InsP3 signalling) in cultured primary cortical neurons. The data set is classed as cell-based. As to conditions: cortical neurons. On the procedure: Primary cultures of neurons were prepared from the telencephalon of white Leghorn chick embryos on the eighth day of their development (Rosenberg et al., J.Biol. Chem. 267:10601-10612, 1992). The neurons were seeded in 24-well plastic tissue culture plates that had been coated with L-polylysine. The density of the neurons was 10^5 cells per well, and they were cultured in Dulbecco's modified Eagle's medium/Ham's high glucose F-12 medium (1:1, vol:vol) containing 500 ng/L sodium selenite, 500 μg/L transferrin, and 165 pmole/L EGF. The cultures were maintained at 37° C. under 5% CO2 in air for 4 days, by which time the cells had differentiated into neurite-bearing cortical granulocytic neurons. These cultures of mature embryonic neurons were used for phosphoinositide hydrolysis assays (as described in Example 2).
Receptor-stimulated and basal unstimulated hydrolysis of phosphoinositides was measured by the following procedure. In order to label the cellular phosphoinositides metabolically, the primary cultures of chick cortical neurons (described in Example 1) were incubated overnight with 0.5 ml Dulbecco's modified Eagle's medium containing 1 μCi [^3 H]myo-inositol per well. The cells were then washed twice with 1 ml Dulbecco's phosphate-buffered saline (PBS) and 0.5 ml of PBS containing 4.5 g/L glucose was added. Sphingosine, psychosine, lysosulphatide, or lysosphingomyelin, prepared as the hydrochloride salt dissolved in water, were then added to produce the desired extracellular concentration in specific wells, […] The cells were then washed twice with 1 ml PBS, and pre-incubated for 15 minutes at 37° C. with 0.5 ml PBS containing 10 mM LiCl and the compound to be tested was added. […] The tubes were vortexed thoroughly, then centrifuged at 500×g for 5 minutes to separate the aqueous and chloroform phases. For each sample, a 1.5-ml aliquot of the upper (aqueous) phase was applied to a small column containing BioRad AG1X8 resin (formate form). Free [^3 H]inositol and [^3 H]glycerophosphoinositol were washed through the column with 5 ml of a solution containing 5 mM sodium borate and 60 mM sodium formate. The total phosphorylated [^3 H] inositol fraction was eluted from the column for radiometric scintillation spectrometry analysis with 3 ml 1.0 M ammonium formate/0.1 M formic acid;
In addition, a 0.5 ml aliquot of the lower (chloroform) phase of each sample was analyzed radiometrically by scintillation spectrometry in order to determine the quantity of lipid-bound [^3 H]myo-inositol. Estimation of phosphoinositide hydrolysis by phospholipase C is based upon the quantity of [^3 H]inositol phosphates produced, and is expressed as the percentage of the latter relative to total free and componential [^3 H]inositol (dpm ammonium formate+dpm chloroform fractions).
Cultured primary chick cortical neurons that were prelabeled with [^3 H]myo-inositol were examined for enhanced InsP3 signalling in response to various agonists including glutamate, aspartate, and the metabotropic […] receptor agonists ibotenate and quisqualate.

For data set [2], the system named is metabotropic glutamate receptor. As to the kind of experiment: Behavioral analysis after ICV infusion (quisqualate excitotoxicity). Format: in vivo, male F344 rats. As to the method:
The animals used in this experiment were male F344 rats (Charles River Breeding Laboratories). The animals were housed individually, exposed to a 12-hour light-dark cycle, and allowed free access to food and water. The animals weighed approximately 250 g at the beginning of each experiment and were weighed daily. In addition, the animals were habituated to handling before each experiment.
Before administering various compounds, the animals were anesthetized with sodium pentobarbital (50 mg/kg, i.p.) and positioned in a sterotaxic instrument. A 26 gauge cannula was inserted into the cerebral ventricle at the following co-ordinates: 1.0 mm posterior to bregma, 1.5 mm lateral to the midline, and 4.0 mm below the dorsal surface of the neocortex. Cannulas were capped and fixed in place with dental cement. One week after cannulation, 10 μl of each of the treatment drugs was infused, ICV (i.e. into the ventricals of the brain), via a micropump at a rate of 10 μl/min. For this procedure, the animals were lightly restrained and unanesthetized. Following administration of the compound, the infusion cannula remained in position for one minute, after which the permanent in situ cannula was capped.
The compounds administered were obtained from a commercial supplier (Sigma Chemical Co., St. Louis, Mo.) and dissolved in saline prior to injection. […]
Pilot studies identified several specific behavioral measures that could be used to indicate excessive activation of the metabotropic receptor (see Table 3). […] The experiments that follow were based on an analysis of these behaviors over a two hour period after administration of the compounds of the invention. Behavioral observation was carried out by two trained observers, who worked independently of one another and who were blind to the experimental groups. […] Frequency and duration means were computed by subtracting pre-infusion means from post-infusion means.
Some of the experiments that were performed first were carried out to determine the amount of quisqualate required to produce behavioral and histological changes and the amount of lysosphingolipids that could effectively prevent or reverse these effects. Table 3 outlines the behavioral responses of rats to various doses of quisqualate (injected as described above) and the associated histological changes. The behaviors are listed as they occur chronologically. The limb clasp and reflex tests indicate the degree of decortication. A limb clasp or placement score of zero is normal, and a score of 3 is severely abnormal.
The data shown in Table 4 represents the observations of pilot studies aimed at determining the effect (on behavior) of lysosphingolipids infused directly into the lateral ventricles of the brain 30 minutes prior to infusion of quisqualate.
The experiment began one week after ICV cannulation. Animals (n=6 per group) were randomly allocated to one of 8 treatment groups: (1) saline, (2) quisqualate at 225 nmoles, (3) psychosine at 125 nmoles, (4) lysosphingomyelin at 125 nmoles, (5) lysosphingomyelin at 150 nmoles, (6) quisqualate at 225 nmoles and psychosine at 125 nmoles, (7) quisqualate at 225 nmoles and lysosphingomyelin at 125 nmoles, and (8) quisqualate at 225 nmoles and lysosphingomyelin at 150 nmoles. Following the baseline observation period, animals received the first of two ICV infusions (all infusions were of a 10 μl volume that was administered over a 1 minute period). For the first five groups listed above, this consisted of saline (10 μl/minute), for the following 3 groups the infusions were psychosine at 125 nmoles, lysosphingomyelin at 125 nmoles, or Iysosphingomyelin at 150 nmoles, respectively. Thirty minutes later, all animals received the second infusion which, for the first five groups listed above, consisted of saline, quisqualate at 225 nmoles, psychosine at 125 nmoles, lysosphingomyelin at 125 mrnoles, and lysosphingomyelin at 150 nmoles respectively. […]

On to `CCCCCCCCCCCCC/C=C/[C@@H](O)[C@@H](N)CO[C@@H]1O[C@H](CO)[C@H](O)[C@H](O)[C@H]1O` [psychosine, lysocerebroside], for which the “inhibitory effect on InsP3 enhancement caused by sphingosine or metabotropic glutamate receptor agonists” value in data set [1] is reported as “blocked this enhancement”. Also, in data set [2] (125 nmoles ICV, no quisqualate), the “convulsant behavior, compound alone” value is recorded as “displayed no convulsant behavior”. Besides, the effective dose in data set [2] (ICV, rat, pilot testing) came out at 125 nmol. The “BEHAVIORAL RESPONSE” value in data set [2] (Psychosine 25 nmoles ICV 30 minutes prior to Quisqualate 200 nmoles) is “Moderate convulsions, teeth chattering; also recorded: akinesia and hyperactivity”; in data set [2] (Psychosine 50 nmoles ICV 30 minutes prior to Quisqualate 200 nmoles), “Moderate convulsions, teeth chattering; also recorded: akinesia and hyperactivity”; in data set [2] (Psychosine 100 nmoles ICV 30 minutes prior to Quisqualate 200 nmoles), “Almost complete attenuation of Quisqualate; also recorded: some teeth chattering post-injection”; in data set [2] (Psychosine 100 nmoles ICV 30 minutes prior to Quisqualate 250 nmoles), “Moderate convulsions, teeth chattering; also recorded: akinesia. Quisqualate markedly reduced”; in data set [2] (Psychosine 125 nmoles ICV 30 minutes prior to Quisqualate 200 nmoles) it was “Complete attenuation of Quisqualate response”; in data set [2] (Psychosine 125 nmoles ICV 30 minutes prior to Quisqualate 225 nmoles), “Complete attenuation of Quisqualate response”. Also, the “BEHAVIORAL RESPONSE” value in data set [2] (Psychosine 150 nmoles ICV 30 minutes prior to Quisqualate 250 nmoles) was “Almost complete attenuation of Quisqualate”. The “sedation produced by the lysosphingolipid” value in data set [2] (Psychosine 150 nmoles ICV, short term) was “sedation at this dose”. Moreover, in data set [2] (doses as high as 125 nmoles per animal ICV), the “behavioral or neurotoxic effects of the compound itself” value was “no behavioral or neurotoxic effects were observed”. The “behavioral and histological changes caused by quisqualate” value in data set [2] (pretreated with 125 nmoles ICV, rat) is listed as “absent”. Besides, the “number of convulsions or spasms” value in data set [2] (pretreatment 125 nmoles ICV 30 minutes before quisqualate 225 nmoles, n=6) was “significantly (p<01) attenuated”.
